This is an account of results in ChEMBL document CHEMBL3098059, “Identification by in silico and in vitro screenings of small organic molecules acting as reversible inhibitors of kallikreins” (Eur J Med Chem, 2013).

Calls of active or inactive are those of the source. The rule behind the calls is not given here.

The target of data set [1] is T1, Suppressor of tumorigenicity 14 protein (Homo sapiens) (UniProt Q9Y5Y6).
T1 sequence (whole entry): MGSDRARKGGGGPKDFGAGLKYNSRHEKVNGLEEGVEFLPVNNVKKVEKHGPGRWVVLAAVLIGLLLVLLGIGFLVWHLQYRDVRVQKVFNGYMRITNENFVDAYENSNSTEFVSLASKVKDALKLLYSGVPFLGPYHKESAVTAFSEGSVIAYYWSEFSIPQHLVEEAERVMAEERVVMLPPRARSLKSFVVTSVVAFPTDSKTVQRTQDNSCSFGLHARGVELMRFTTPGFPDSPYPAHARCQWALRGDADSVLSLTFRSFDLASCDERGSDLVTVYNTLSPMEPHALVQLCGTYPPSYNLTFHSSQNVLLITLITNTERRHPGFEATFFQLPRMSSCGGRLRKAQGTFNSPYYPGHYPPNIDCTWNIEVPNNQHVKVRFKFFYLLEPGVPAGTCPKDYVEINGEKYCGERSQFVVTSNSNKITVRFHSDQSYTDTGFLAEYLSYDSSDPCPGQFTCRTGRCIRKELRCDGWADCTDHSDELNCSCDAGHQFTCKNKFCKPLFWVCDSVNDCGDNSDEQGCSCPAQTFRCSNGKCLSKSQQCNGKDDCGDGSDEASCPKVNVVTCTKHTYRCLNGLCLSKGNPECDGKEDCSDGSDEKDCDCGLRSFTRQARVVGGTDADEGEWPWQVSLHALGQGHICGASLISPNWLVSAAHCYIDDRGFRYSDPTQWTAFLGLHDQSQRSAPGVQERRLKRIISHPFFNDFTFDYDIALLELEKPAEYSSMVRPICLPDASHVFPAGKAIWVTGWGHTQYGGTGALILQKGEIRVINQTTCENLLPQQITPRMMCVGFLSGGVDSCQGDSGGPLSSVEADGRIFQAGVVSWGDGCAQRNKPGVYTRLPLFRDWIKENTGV
Put plainly: Inhibition of matriptase (unknown origin) using Boc-Gln-Ala-Arg-AMC as substrate at 50 uM after 15 mins by fluorescence assay.

Data set [2] can be described thus: Cytotoxicity against human keratinocytes assessed as cell viability at 10 uM after 24 to 48 hrs by neutral red assay. The format is cell-based, Keratinocyte. The conditions noted are these: keratinocyte, 10 µM.
The target in data set [3] is Kallikrein-5 (Homo sapiens) (UniProt Q9Y337). Put plainly: Competitive inhibition of human kallikrein5 using Boc-Val-Pro-Arg-AMC as substrate at 50 uM after 15 to 60 mins by Lineweaver-Burk/Eadie-Hofstee plot analysis.
Data set [4] deals with T2, Kallikrein-7 (Homo sapiens, UniProt P49862). Put plainly: Inhibition of human kallikrein7 using Suc-Leu-Leu-Val-Tyr-AMC as substrate after 15 mins by fluorescence assay.
Target sequence in this assay (P49862 whole entry): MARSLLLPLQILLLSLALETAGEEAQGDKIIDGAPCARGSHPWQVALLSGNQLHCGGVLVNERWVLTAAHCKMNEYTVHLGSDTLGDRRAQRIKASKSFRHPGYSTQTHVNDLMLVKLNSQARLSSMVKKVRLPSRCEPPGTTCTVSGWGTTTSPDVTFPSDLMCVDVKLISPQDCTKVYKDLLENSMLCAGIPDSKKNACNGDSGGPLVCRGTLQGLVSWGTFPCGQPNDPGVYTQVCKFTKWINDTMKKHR
For data set [5], the target named is T2, Kallikrein-7. In words: Mixed-type inhibition of human kallikrein7 using Suc-Leu-Leu-Val-Tyr-AMC as substrate assessed as enzyme-inhibitor complex after 15 to 60 mins by Lineweaver-Burk/Eadie-Hofstee plot analysis.
Target sequence in this assay (P49862 whole entry): as above
Data set [6] concerns the target T2, Kallikrein-7. Put plainly: Reversible inhibition of human kallikrein7 using Suc-Leu-Leu-Val-Tyr-AMC as substrate after 15 to 60 mins by fluorescence assay.
Target sequence in this assay (P49862 30-253 limits assumed): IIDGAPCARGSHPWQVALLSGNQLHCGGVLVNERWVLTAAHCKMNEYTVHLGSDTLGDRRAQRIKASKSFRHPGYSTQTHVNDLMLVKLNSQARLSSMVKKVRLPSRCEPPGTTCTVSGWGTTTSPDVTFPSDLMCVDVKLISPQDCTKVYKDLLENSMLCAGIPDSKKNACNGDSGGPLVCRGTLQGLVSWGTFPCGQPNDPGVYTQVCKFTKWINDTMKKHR
Data set [7] has as its target T1, Suppressor of tumorigenicity 14 protein (Homo sapiens). Put plainly: Reversible inhibition of matriptase (unknown origin) using Boc-Gln-Ala-Arg-AMC as substrate after 15 to 60 mins by fluorescence assay.
The target of the next data set is T3, Kallikrein-14 (Homo sapiens, UniProt Q9P0G3).
T3 sequence (Q9P0G3 whole entry): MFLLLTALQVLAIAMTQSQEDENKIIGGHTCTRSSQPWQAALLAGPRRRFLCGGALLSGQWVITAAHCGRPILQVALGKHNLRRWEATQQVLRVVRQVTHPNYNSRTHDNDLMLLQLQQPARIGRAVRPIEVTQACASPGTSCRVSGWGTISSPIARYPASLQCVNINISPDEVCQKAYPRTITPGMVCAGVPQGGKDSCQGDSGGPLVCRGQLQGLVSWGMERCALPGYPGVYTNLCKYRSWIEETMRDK
In words: Inhibition of human kallikrein14 using Boc-Val-Pro-Arg-AMC as substrate after 15 mins by fluorescence assay.

Data set [8] concerns the target T4, Kallikrein-14 (Homo sapiens) (UniProt Q9P0G3).
T4 sequence (whole entry): T3 sequence (Q9P0G3 whole entry)
Put plainly: Reversible inhibition of human kallikrein14 using Boc-Val-Pro-Arg-AMC as substrate after 15 to 60 mins by fluorescence assay.

The target of data set [9] is T2, Kallikrein-7. Put plainly: Ratio of Ki for mixed-type inhibition of human kallikrein7 assessed as enzyme-substrate-inhibitor complex to Ki for mixed-type inhibition of human kallikrein7 assessed as enzyme-inhibitor complex.
Target sequence in this assay (P49862 30-253 limits assumed): as the sequence (P49862 30-253 limits assumed) above
Data set [10] has as its target Kallikrein-5 (Homo sapiens) (UniProt Q9Y337). In words: Inhibition of human kallikrein5 using Boc-Val-Pro-Arg-AMC as substrate at 50 uM after 15 mins by fluorescence assay.
The target of data set [11] is T2, Kallikrein-7. In words: Mixed-type inhibition of human kallikrein7 using Suc-Leu-Leu-Val-Tyr-AMC as substrate assessed as enzyme-substrate-inhibitor complex after 15 to 60 mins by Lineweaver-Burk/Eadie-Hofstee plot analysis.
Target sequence in this assay (P49862 whole entry): as the sequence (P49862 whole entry) above
The target of data set [12] is Kallikrein-5 (Homo sapiens) (UniProt Q9Y337). Put plainly: Reversible inhibition of human kallikrein5 using Boc-Val-Pro-Arg-AMC as substrate after 15 to 60 mins by fluorescence assay.
Data set [13] is described as follows: Cytotoxicity against human keratinocytes assessed as cell viability at 1 uM after 24 to 48 hrs by neutral red assay. The data set is classed as cell-based. The settings on record: keratinocyte.
In data set [14] the target is T5, Suppressor of tumorigenicity 14 protein (Homo sapiens, UniProt Q9Y5Y6).
T5 sequence (Q9Y5Y6 whole entry): T1 sequence (whole entry)
In words: Inhibition of matriptase (unknown origin) using Boc-Gln-Ala-Arg-AMC as substrate after 15 mins by fluorescence assay.

Data set [15] has as its target T4, Kallikrein-14 (Homo sapiens). Put plainly: Inhibition of human kallikrein14 using Boc-Val-Pro-Arg-AMC as substrate at 50 uM after 15 mins by fluorescence assay.
Data set [16] in a line: Cytotoxicity against human keratinocytes assessed as cell viability at 100 uM after 24 to 48 hrs by neutral red assay. The data set is classed as cell-based. The settings on record: keratinocyte.
For data set [17], the target named is T6, Kallikrein-5 (Homo sapiens, UniProt Q9Y337).
T6 sequence (Q9Y337 whole entry): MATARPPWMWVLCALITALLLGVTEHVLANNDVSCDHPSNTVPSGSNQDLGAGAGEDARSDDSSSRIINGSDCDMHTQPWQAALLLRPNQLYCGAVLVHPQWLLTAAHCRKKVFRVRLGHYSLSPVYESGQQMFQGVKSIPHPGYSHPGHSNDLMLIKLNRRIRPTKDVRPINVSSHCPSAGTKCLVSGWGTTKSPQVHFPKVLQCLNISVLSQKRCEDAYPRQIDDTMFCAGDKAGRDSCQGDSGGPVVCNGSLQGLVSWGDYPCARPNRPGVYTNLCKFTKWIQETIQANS
In words: Inhibition of human kallikrein5 using Boc-Val-Pro-Arg-AMC as substrate after 15 mins by fluorescence assay.

The target of data set [18] is T6, Kallikrein-5. In words: Competitive inhibition of human kallikrein5 using Boc-Val-Pro-Arg-AMC as substrate after 15 to 60 mins by Lineweaver-Burk/Eadie-Hofstee plot analysis.

Take `CNC(=O)c1ccc(Nc2nnc(-c3ccc(O)cc3)c3ccccc23)cc1`: the inhibition in [1], in data set [3] and in data set [10] was less than 30% in each case. In addition, the Activity result in [2] and in data set [13] was “Non-toxic” throughout. Moreover, the IC50 (usually the concentration that inhibits the measured activity by half) against Kallikrein-7 [4] is 66 µM; at Kallikrein-14, 96 µM. The figures for the Ki on Kallikrein-7 [5] and on Kallikrein-7 [11] were 50 µM and 166 µM, respectively. Moreover, the inhibition entry (on Kallikrein-7 [6]; in data set [7]; in data set [8]; in data set [12]) was “Active” throughout. Besides, the Ratio Ki on Kallikrein-7 [9] was found to be 2.
For `CCOc1cccc(NC(=O)/C(C#N)=C\c2ccc(OCC(=O)O)c(OC)c2)c1`, the Activity entry in data set [2] and in data set [13] was “Non-toxic” throughout. The inhibition in [3] and in data set [10] was less than 30% in each case. Further, the half-maximal inhibitory concentration (IC50) was 113 µM on Kallikrein-7 [4], 87 µM at Kallikrein-14 and 75 µM in [14]. Moreover, the inhibitory constant (Ki) (in general, a dissociation constant, usually derived from enzyme kinetics or from competition with a known ligand) on Kallikrein-7 [5] was determined as 95 µM; at Kallikrein-7 [11], 140 µM. Also, the inhibition entry (on Kallikrein-7 [6]; in [7]; in data set [8]; in [12]) was “Active” in each case. Further, on Kallikrein-7 [9], the Ratio Ki turned out to be 2.
As to `Nc1ccc2[nH]c(SCc3nc4ccccc4c(=O)n3-c3cccc(C(F)(F)F)c3)nc2c1`, the inhibition in [1], in [3], in data set [15] and in data set [10] was less than 30% throughout. Further, the Activity entry in [2], in [16] and in data set [13] was “Non-toxic” each time. Besides, on Kallikrein-7 [4], half-maximal inhibition (IC50) required 25 µM. Further, the Ki amounted to 15 µM on Kallikrein-7 [5] and 44 µM on Kallikrein-7 [11]. For the same molecule, the inhibition result (on Kallikrein-7 [6]; in data set [7]; in [8]; in [12]) was “Active” throughout. Moreover, the Ratio Ki on Kallikrein-7 [9] worked out at 2.
`COc1cc(/C=C(/C#N)c2nc3ccccc3[nH]2)ccc1OCC(=O)N1CCOCC1`: the IC50 against Kallikrein-5 [17] worked out at 125 µM; against Kallikrein-7 [4] it was 83 µM; against Kallikrein-14, 108 µM; in data set [14], 128 µM. In addition, the Activity result in [2], in data set [16] and in [13] was “Non-toxic” throughout. Besides, the results for the Ki on Kallikrein-7 [5], at Kallikrein-5 [18] and on Kallikrein-7 [11] were 55 µM, 121 µM and 131 µM, respectively. Moreover, the inhibition entry (on Kallikrein-7 [6]; in [7]; in [8]; in data set [12]) was “Active” each time. The Ratio Ki on Kallikrein-7 [9] was determined as 2.
